Assay results as given in ChEMBL document CHEMBL5252515, “Discovery of 6-Amino-2-{[(1S)-1-methylbutyl]oxy}-9-[5-(1-piperidinyl)pentyl]-7,9-dihydro-8H-purin-8-one (GSK2245035), a Highly Potent and Selective Intranasal Toll-Like Receptor 7 Agonist for the Treatment of Asthma” (J Med Chem, 2016).
Active and inactive are the calls of the source. The calls are words filed in the database; no cut-off is given here.

Experiments:
Rattus norvegicus = test: Induction of IFNalpha production in rat at 0.4 mg/kg measured after 2 hrs; assay type: functional, organism-based
Toll-like receptor 7 [1] = biological target: T1, Toll-like receptor 7 (Homo sapiens, UniProt Q9NYK1); test: Agonist activity at TLR7 in human whole blood assessed as induction of IL-10 production after 20 hrs by electrochemiluminescence assay; assay type: tissue-based
T1 sequence (Q9NYK1 whole entry): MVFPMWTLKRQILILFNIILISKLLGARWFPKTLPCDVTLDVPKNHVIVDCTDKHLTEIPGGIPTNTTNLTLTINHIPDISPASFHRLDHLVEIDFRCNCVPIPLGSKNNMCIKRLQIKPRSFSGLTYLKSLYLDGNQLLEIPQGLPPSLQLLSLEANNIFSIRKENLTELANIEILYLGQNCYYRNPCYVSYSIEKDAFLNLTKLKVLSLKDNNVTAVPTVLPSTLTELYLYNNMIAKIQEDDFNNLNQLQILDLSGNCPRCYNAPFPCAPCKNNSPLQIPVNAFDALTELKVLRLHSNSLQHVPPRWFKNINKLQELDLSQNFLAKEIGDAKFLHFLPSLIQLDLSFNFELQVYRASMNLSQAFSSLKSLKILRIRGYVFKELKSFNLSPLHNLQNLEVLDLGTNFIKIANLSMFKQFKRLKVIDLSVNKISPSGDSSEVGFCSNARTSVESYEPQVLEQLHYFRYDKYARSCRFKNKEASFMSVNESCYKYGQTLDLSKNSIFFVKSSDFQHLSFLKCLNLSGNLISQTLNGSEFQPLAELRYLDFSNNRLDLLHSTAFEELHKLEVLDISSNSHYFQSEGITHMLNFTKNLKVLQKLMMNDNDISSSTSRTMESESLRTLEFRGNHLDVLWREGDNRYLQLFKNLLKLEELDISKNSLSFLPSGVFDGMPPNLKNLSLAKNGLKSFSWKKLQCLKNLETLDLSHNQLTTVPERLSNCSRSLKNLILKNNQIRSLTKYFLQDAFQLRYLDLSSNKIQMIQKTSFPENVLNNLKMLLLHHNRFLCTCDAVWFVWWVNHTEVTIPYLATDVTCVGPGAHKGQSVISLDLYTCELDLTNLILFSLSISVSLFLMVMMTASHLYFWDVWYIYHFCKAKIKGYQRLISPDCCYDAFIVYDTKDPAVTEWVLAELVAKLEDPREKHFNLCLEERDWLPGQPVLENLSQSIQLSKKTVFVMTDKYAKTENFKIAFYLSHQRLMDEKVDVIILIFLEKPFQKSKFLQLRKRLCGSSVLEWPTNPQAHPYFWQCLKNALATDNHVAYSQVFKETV

PBMC [2] = test: Immunomodulatory activity in human PBMC assessed as IL-10 production in presence of allergen timothy grass; assay type: functional, cell-based
[3] = Ocular toxicity in monkey assessed as aqueous cells and aqueous flare at 1000 ug/ml, post single dose administration after 6 hrs; set-up: species or system Macaca mulatta; details: rhesus monkey, in vivo, dose 1000 µg/ml
[4] = Selectivity ratio of pEC50 for agonist activity at TLR7 in human whole blood to pEC50 for agonist activity at TLR7 in BALB/c mouse splenocytes; assay type: cell-based
Toll-like receptor 7 [5] = biological target: T2, Toll-like receptor 7 (Macaca fascicularis, UniProt B3Y652); test: Agonist activity at TLR7 in cynomolgus monkey whole blood assessed as induction of IFNalpha production; assay type: tissue-based
T2 sequence (B3Y652 whole entry): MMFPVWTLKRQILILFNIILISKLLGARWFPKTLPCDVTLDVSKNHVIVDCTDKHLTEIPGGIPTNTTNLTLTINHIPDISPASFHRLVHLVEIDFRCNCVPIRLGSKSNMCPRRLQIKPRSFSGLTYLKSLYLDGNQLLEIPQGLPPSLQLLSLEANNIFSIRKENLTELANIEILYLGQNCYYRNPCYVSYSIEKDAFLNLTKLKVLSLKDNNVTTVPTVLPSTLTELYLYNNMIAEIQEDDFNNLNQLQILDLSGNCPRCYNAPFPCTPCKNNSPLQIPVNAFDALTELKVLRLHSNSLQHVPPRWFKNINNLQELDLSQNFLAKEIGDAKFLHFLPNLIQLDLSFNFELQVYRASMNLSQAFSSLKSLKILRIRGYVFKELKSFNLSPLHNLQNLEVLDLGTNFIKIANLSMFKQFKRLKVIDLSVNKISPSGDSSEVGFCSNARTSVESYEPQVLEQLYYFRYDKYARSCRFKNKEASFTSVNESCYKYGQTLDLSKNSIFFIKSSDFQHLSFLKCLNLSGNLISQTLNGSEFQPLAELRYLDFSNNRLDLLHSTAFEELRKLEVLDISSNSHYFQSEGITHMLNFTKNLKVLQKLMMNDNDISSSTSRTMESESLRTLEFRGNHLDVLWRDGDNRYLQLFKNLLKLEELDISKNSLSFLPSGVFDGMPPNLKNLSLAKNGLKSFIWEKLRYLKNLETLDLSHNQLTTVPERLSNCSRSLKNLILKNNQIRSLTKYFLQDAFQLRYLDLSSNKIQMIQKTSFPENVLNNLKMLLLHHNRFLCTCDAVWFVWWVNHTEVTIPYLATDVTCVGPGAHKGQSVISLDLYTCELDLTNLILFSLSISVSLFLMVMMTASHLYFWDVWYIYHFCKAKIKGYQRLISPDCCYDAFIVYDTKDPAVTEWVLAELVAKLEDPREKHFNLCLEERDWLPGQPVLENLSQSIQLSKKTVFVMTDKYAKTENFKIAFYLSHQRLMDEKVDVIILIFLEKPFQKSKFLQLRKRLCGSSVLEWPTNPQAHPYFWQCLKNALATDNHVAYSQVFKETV

[6] = biological target: T3, Toll-like receptor 7 (Macaca fascicularis) (UniProt B3Y652); test: In vivo target occupancy at TLR7 in cynomolgus monkey assessed as fold increase in IFIT2 mRNA expression in nasal scrape at 3 ng/kg administered intranasally incubated for 24 hrs by TaqMan analysis (reference value: 2.1); assay type: functional
T3 sequence (whole entry): T2 sequence (B3Y652 whole entry)

Mus musculus [7] = test: Increase in IFN-alpha level in intranasally dosed BALB/c mouse nasal lavage after 6 hrs; assay type: functional, organism-based
Cynomolgus monkey [8] = test: Induction of plasma cytokines in cynomolgus monkey; assay type: functional, organism-based; details: Macaca fascicularis
[9] = biological target: T3, Toll-like receptor 7 (Macaca fascicularis); test: In vivo target occupancy at TLR7 in cynomolgus monkey assessed as fold increase in OAS3 mRNA expression in nasal scrape at 3 ng/kg administered intranasally incubated for 24 hrs by TaqMan analysis (reference value: 0.9); assay type: functional
Cynomolgus monkey [10] = test: Increase in IP-10 level in cynomolgus monkey serum at 30 ng/kg, administered intranasally after 6 hrs; assay type: functional, organism-based; details: Macaca fascicularis
[11] = biological target: T3, Toll-like receptor 7 (Macaca fascicularis); test: In vivo target occupancy at TLR7 in cynomolgus monkey assessed as fold increase in CXCL10 mRNA expression in nasal scrape at 30 ng/kg administered intranasally incubated for 24 hrs by TaqMan analysis (reference value: 1.6); assay type: functional
PBMC [12] = test: Immunomodulatory activity in human PBMC assessed as IL-10 production incubated for 6 days in presence of allergen house dust mite; assay type: functional, cell-based; details: time 6.0 day
Toll-like receptor 7 [13] = biological target: T1, Toll-like receptor 7; test: Agonist activity at TLR7 in human PBMC assessed as TNF-alpha production after 24 hrs by electrochemiluminescence assay; assay type: cell-based
Mus musculus [14] = test: Increase in IP-10 level in BALB/c mouse serum at 0.1 mg/kg, administered intranasally after 2 hrs by ELISA; assay type: functional, organism-based

CCC[C@H](C)Oc1nc(N)c2[nH]c(=O)n(CCCCCN3CCCCC3)c2n1 [GSK-2245035]
Activity (Rattus norvegicus): Active
EC50 (Toll-like receptor 7 [1]): 251 nM
Activity (PBMC [2]): Active
Activity [3]: Toxic
Selectivity ratio [4]: 10
EC50 (Toll-like receptor 7 [5]): 79.4 nM
fold change (FC) [6]: 108
Activity (Mus musculus [7]): inactive
Activity (Cynomolgus monkey [8]): inactive
fold change (FC) [9]: 86.3
Activity (Cynomolgus monkey [10]): Active
fold change (FC) [11]: 638
Activity (PBMC [12]): Active
EC50 (Toll-like receptor 7 [13]): 316 nM
Activity (Mus musculus [14]): Active
